From ChEMBL document CHEMBL3351410, “The discovery of avanafil for the treatment of erectile dysfunction: a novel pyrimidine-5-carboxamide derivative as a potent and highly selective phosphodiesterase 5 inhibitor” (Bioorg Med Chem Lett, 2014) come the findings set out here.

The species entered for experiment [1] is Homo sapiens. The experiment is described as follows: Selectivity for PDE5 (unknown origin) over PDE6 (unknown origin).
For experiment [2], the species on record is Homo sapiens. Briefly: Selectivity for PDE5 (unknown origin) over PDE2 (unknown origin).
The species named for experiment [3] is Homo sapiens. The experiment is described as follows: Selectivity for PDE5 (unknown origin) over PDE3 (unknown origin).
Experiment [4] is filed under the species Homo sapiens. Briefly: Selectivity for PDE5 (unknown origin) over PDE9 (unknown origin).
The species entered for experiment [5] is Homo sapiens. The experiment is described as follows: Selectivity for PDE5 (unknown origin) over PDE10 (unknown origin).
Another experiment has as its system Corpus cavernosum. Briefly: Induction of relaxant effect in rabbit corpus cavernosum after 30 mins. Format: functional, Oryctolagus cuniculus.
Experiment [6] is filed under the species Homo sapiens. Briefly: Selectivity for PDE5 (unknown origin) over PDE4 (unknown origin).
For experiment [7], the species on record is Homo sapiens. Briefly: Selectivity for PDE5 (unknown origin) over PDE7 (unknown origin).
Experiment [8] is filed under the species Homo sapiens. The experiment is described as follows: Selectivity for PDE5 (unknown origin) over PDE8 (unknown origin).
A short description of experiment [9]: Selectivity for dog lungs PDE5 over light-activated bovine retina PDE6.
Experiment [10] is filed under the species Homo sapiens. Briefly: Selectivity for PDE5 (unknown origin) over PDE1 (unknown origin).
The species named for experiment [11] is Homo sapiens. Briefly: Selectivity for PDE5 (unknown origin) over PDE11 (unknown origin).
The target of experiment [12] is cGMP-specific 3',5'-cyclic phosphodiesterase (Canis lupus familiaris, UniProt O77746). The experiment is described as follows: Inhibition of dog lungs PDE5 using [3H]cGMP as substrate after 30 mins by scintillation counting analysis.

What is called EC30 is the concentration at which the effect reaches the 30% level. In the case of `COc1ccc(CNc2nc(N3CCC[C@H]3CO)ncc2C(=O)NCc2ncccn2)cc1Cl` [AVANAFIL], the Selectivity ratio in the experiment listed under Homo sapiens [1] is 121; in the experiment filed under Homo sapiens [2], greater than 1000; in the experiment filed under Homo sapiens [3], greater than 1000; in the experiment filed under Homo sapiens [4], greater than 1000; in the experiment listed under Homo sapiens [5], greater than 1000; in the experiment listed under Homo sapiens [6] it was greater than 1000. The Selectivity ratio was greater than 1000 in the experiment listed under Homo sapiens [7]; greater than 1000 in the experiment filed under Homo sapiens [8]; 4000 in experiment [9]; greater than 1000 in the experiment listed under Homo sapiens [10]; greater than 19200 in the experiment listed under Homo sapiens [11]. For the same compound, in the experiment on Corpus cavernosum, the EC30 is given as 2.1 nM.
One may read the IC50 as the concentration that gives 50% inhibition. Lower therefore signals greater potency. As for `COc1ccc(CNc2nc(N3CCC[C@H]3CO)ncc2C(=O)NCC2CN(C)CCO2)cc1Cl` (some centres not stated), in the experiment with Corpus cavernosum, the EC30 was found to be 2.7 nM. In experiment [9], the Selectivity ratio is 2000. This compound registered an IC50 in experiment [12] of 6.1 nM.
`COc1ccc(CNc2nc(N3Cc4ccccc4C[C@H]3CO)ncc2C(=O)NCc2ccccn2)cc1Cl` had an IC50 in [12] of 6.5 nM.
Still for that read-out and setting: in the case of `COc1ccc(CNc2nc(OCc3ccccn3)ncc2C(=O)N(C)Cc2ccccn2)cc1Cl` it was 85 nM.
On to `COc1ccc(CNc2nc(N3CCC[C@H]3CO)ncc2C(=O)N[C@H]2CC[C@H](O)CC2)cc1Cl`, for which the EC30 with Corpus cavernosum is given as greater than 100 nM. Moreover, the Selectivity ratio in [9] stood at 5600. In experiment [12], this compound returned a half-maximal inhibitory concentration (IC50) of 1.8 nM.
On to `COc1ccc(CNc2nc(N3CCC(CO)C3)ncc2C(=O)NCc2ncccn2)cc1Cl` (configuration not stated), for which it took 25 nM to reach half-maximal inhibition in [12] (IC50).
Take `COCCCNC(=O)c1cnc(OCc2ccccn2)nc1NCc1ccc(OC)c(Cl)c1`: in [9], the Selectivity ratio stood at 240. Further, the half-inhibitory concentration (IC50) in [12] turned out to be 15 nM.
Taken in the same sequence, the figures for `COc1ccc(CNc2nc(OCc3ccccn3)ncc2C(=O)N[C@H]2CC[C@H](O)CC2)cc1Cl` were 510 and 3.5 nM.
For `COc1ccc(CNc2nc(N(C)CCO)ncc2C(=O)NCc2ccccn2)cc1Cl`, 32 nM corresponded to half-maximal inhibition in [12] (IC50).
Regarding `COc1ccc(CNc2nc(OCc3ccccn3)ncc2C(=O)NCCCO)cc1Cl`, in experiment [9], the Selectivity ratio worked out at 420. Further, the IC50 in experiment [12] is 13 nM.
Taken in the same sequence, the figures for `COc1ccc(CNc2nc(OCc3ccccn3)ncc2C(=O)NCc2ncccn2)cc1Cl` were 720 and 12 nM.
In the case of `COc1ccc(CNc2nc(N3CCC(O)CC3)ncc2C(=O)NCc2ccccn2)cc1Cl`, the half-maximal inhibitory concentration (IC50) in experiment [12] is 59 nM.
Same read-out and setting: then `COc1ccc(CNc2nc(N3CCC[C@@H]3CO)ncc2C(=O)NCc2ncccn2)cc1Cl`, with 36 nM.
In [12], `COc1ccc(CNc2nc(N3CCOC(CO)C3)ncc2C(=O)NCc2ccccn2)cc1Cl` (configuration not stated) showed an IC50 of 32 nM.
With `COc1ccc(CNc2nc(N3CCC[C@H]3CO)ncc2C(=O)NCCCO)cc1Cl`, the 30% effect concentration (EC30) in the experiment on Corpus cavernosum turned out to be 4.9 nM. In [9], the Selectivity ratio stood at 1500. The compound further yielded an IC50 in experiment [12] of 6.6 nM.
For the compound `COc1ccc(CNc2nc(OCc3ccccn3)ncc2C(=O)OCc2ccccn2)cc1Cl`, in experiment [9], the Selectivity ratio came out at 1000. The midpoint of inhibition in experiment [12], the IC50, lay at 2.1 nM.
Taken in the same sequence, the figures for `COc1ccc(CNc2nc(OCc3ccccn3)ncc2C(=O)OCc2ncccn2)cc1Cl` were 640 and 4.2 nM.
Take `CCOC(=O)c1cnc(OCc2ccccn2)nc1NCc1ccc(OC)c(Cl)c1`: in the experiment with Corpus cavernosum, the EC30 came out at 37 nM. Besides, inhibition in [12] was half-maximal at 5.5 nM (IC50).
For `COc1ccc(CNc2nc(OCc3ccccn3)ncc2C(=O)NCCCCO)cc1Cl`, the Selectivity ratio in experiment [9] worked out at 480. In [12], inhibition was half-maximal at 12 nM (IC50).
With `COc1ccc(CNc2nc(OCc3ccccn3)ncc2C(=O)NCc2ccccn2)cc1Cl`, the Selectivity ratio in [9] worked out at 480. The concentration for half-maximal inhibition (IC50) in [12] was 2.7 nM.
With `COc1ccc(CNc2nc(N3CCC[C@H]3CO)ncc2C(=O)N[C@H]2CC[C@H](OC)CC2)cc1Cl`, the concentration for an effect of 30% (EC30) with Corpus cavernosum came to 6.8 nM. Further, the Selectivity ratio in [9] came to 7700. This compound also displayed an IC50 in [12] of 0.9 nM.
As for `COc1ccc(CNc2nc(N3CCCC(CO)C3)ncc2C(=O)NCc2ncccn2)cc1Cl` (configuration not stated), the half-inhibitory concentration (IC50) in experiment [12] turned out to be 63 nM.
`CCCc1nn(C)c2c(=O)[nH]c(-c3cc(S(=O)(=O)N4CCN(C)CC4)ccc3OCC)nc12`: the Selectivity ratio in the experiment filed under Homo sapiens [1] is 16.
With `COc1ccc(CNc2nc(N3CCCCC3CO)ncc2C(=O)NCc2ccccn2)cc1Cl` (configuration not stated), in [12], it took 54 nM to reach half-maximal inhibition (IC50).
In the case of `CN1CC(=O)N2[C@H](c3ccc4c(c3)OCO4)c3[nH]c4ccccc4c3C[C@@H]2C1=O`, the Selectivity ratio in the experiment listed under Homo sapiens [1] was 550; in the experiment listed under Homo sapiens [11], 25.
`COc1ccc(CNc2nc(N3CCOC[C@H]3CO)ncc2C(=O)NCc2ncccn2)cc1Cl` gave an IC50 in experiment [12] greater than 100 nM.
Regarding `COc1ccc(CN=c2[nH]c(N3CCC[C@H]3CO)ncc2C(=O)NCc2ncccn2)cc1Cl` [AVANAFIL], the IC50 in experiment [12] turned out to be 5.2 nM.
With `COc1ccc(CNc2nc(N3CCC[C@H]3CO)ncc2C(=O)NCc2ccccn2)cc1Cl`, in the experiment with Corpus cavernosum, the EC30 is 22 nM. For the same compound, the Selectivity ratio in [9] is 4300. This compound returned an IC50 in experiment [12] of 1.2 nM.
Consider `COc1ccc(CNc2nc(OCc3ccccn3)ncc2C(=O)NCCN2CCOCC2)cc1Cl`, for which, in experiment [9], the Selectivity ratio was 630. This compound yielded an IC50 in experiment [12] of 5.6 nM.
`CCCc1nc(C)c2c(=O)nc(-c3cc(S(=O)(=O)N4CCN(CC)CC4)ccc3OCC)[nH]n12`: in the experiment listed under Homo sapiens [1], the Selectivity ratio turned out to be 21.
